# Values quoted from earlier work, collected in patent US20110052647A1, “Antidepressant Oral Pharmaceutical Compositions” (priority 2005, published 2011).
# Experiments:
# [1] = oral administration of capsules containing enteric-coated pellets
# [2] = test system: dopaminergic, adrenergic, cholinergic or histaminergic receptors; conditions: in vitro
# [3] = not given; remark: listed apart in the source
structure (smiles),measurement,setting,value
"CNCC[C@H](Oc1cccc2ccccc12)c1cccs1 [Duloxetine, (S)-N-methyl-3-(1-naphthyloxy)-3-(2-thienyl)propan-1-amine]",dosage hydrolyzed to 1-naphthol,"pH of 1.0, within one hour",50%
same,dosage degrades to 1-Naphthol,"pH of 2.0, in one hour",10%
same,time for 10% degradation,pH of 4.0,up to 63 hours
same,mean plasma elimination half-life,[1],12.1 h
same,median time to maximum concentration (Tmax),[1],6 h
same,"affinity for dopaminergic, adrenergic, cholinergic or histaminergic receptors",[2],no significant affinity
same,pH values at which unstable in solution,[3],less than 2.5
same,inhibition of monoamine oxidase (MAO),monoamine oxidase (MAO),does not inhibit
